What all share (type): cell-based
The subject of one experiment is fungi. Briefly: Antifungal activity (general statement). The conditions noted are these: noted by Applicants, no test described. The text has this: Applicants envision that the present invention is also useful for providing antifungal compounds and organisms engineered to express antifungal compounds. Preferably, one would measure the antifungal properties of a compound in the manner of N. Lomovskaya, et al., Microbiology 143:875-883, 1997. Measurement of inhibition of yeast growth can be found in R. Ikeura, et al., J. Antibiotics 41:1148, 1988. The same general methods could be used for all fungi. Both of these references are hereby incorporated by reference.

Experiment [1] concerns A. nidulans strains WMH1741 and WMH1742 (WMH1738 transformed with AN26). The experiment is described as follows: Lovastatin resistance test: spore suspension streaked on solid AMM plates containing lovastatin. The conditions noted are these: 37° C. On the procedure: (§1) This strain WMH1738 was transformed to hygromycin B resistance with pWHM1263. Transformant colonies were screened for lovastatin resistance and for the production of new metabolites as described below and two strains WMH1739 and WMH1740 were chosen for further analysis. […] This was analyzed by streaking 10 μl of a spore suspension on solid AMM plates containing lovastatin at 0, 0.1, 0.5, 1, 5, 10, 50 and 100 μg/ml and incubating at 37° C. Strains WMH1739 and WMH1740 were compared to strains WMH1741 and WMH1742 which were derivatives of WMH1738 transformed to hygromycin resistance with AN26. […] The two lovastatin resistant strains were fermented in lovastatin-producing conditions using fermentation method B and extracts were analyzed for lovastatin related metabolites as described below. […] One compound that was common to both comigrated with monacolin J on TLC and HPLC analysis by the methods described below. Semi-preparative HPLC was used to partially purify some of this compound, which was then analyzed by HPLC—MS. It had the same mass and fragmentation pattern as authentic monacolin J. The other compound, found in only one of the strains, comigrated with monacolin L on TLC and HPLC.

In experiment [2] the test system is A. nidulans strains WMH1739 and WMH1740 (WMH1738 transformed with pWHM1263). The description is as above. The protocol: as §1

Turning to `C[C@@H]1CC[C@@H]2[C@@H](CC[C@@H]3C[C@@H](O)CC(=O)O3)[C@@H](C)C=C[C@H]2C1` [dihydromonocolin L, dihydromonacolin L], the antifungal activity entry in the experiment on fungi is on record as “varying degrees of antifungal activity”.
Consider `CC[C@H](C)C(=O)O[C@H]1C[C@@H](C)C=C2C=C[C@H](C)[C@H](CC[C@@H]3C[C@@H](O)CC(=O)O3)[C@H]21` [lovastatin], for which the inhibition of growth result in experiment [1] (lovastatin 5 μg/ml on solid AMM plates) is “slight inhibition”; in experiment [1] (lovastatin 50 μg/ml on solid AMM plates), “almost complete growth inhibition”; in experiment [2] (strains WMH1739 and WMH1740, lovastatin at 0, 0.1, 0.5, 1, 5, 10, 50 and 100 μg/ml on solid AMM plates, 37° C.) it was “no inhibition of growth”. For the same compound, the “lovastatin concentration to which strains were significantly resistant” value in experiment [2] (strains WMH1739 and WMH1740 compared with the host strain, solid media) is given as “up to 100 μg/ml”. Moreover, the antifungal activity result in the experiment with fungi is recorded as “varying degrees of antifungal activity”.
`C[C@H]1C=C2C=C[C@H](C)[C@H](CC[C@@H]3C[C@@H](O)CC(=O)O3)[C@H]2CC1` [monocolin L, monacolin L]: the antifungal activity result in the experiment with fungi is recorded as “varying degrees of antifungal activity”.
On the same count and under the same terms, in the case of `C[C@H]1C=C2C=C[C@H](C)[C@H](CC[C@@H]3C[C@@H](O)CC(=O)O3)[C@H]2[C@@H](O)C1` [monocolin J, monacolin J] it was “varying degrees of antifungal activity”.

The values above are taken from US6943017B2, “Method of producing antihypercholesterolemic agents” (Wisconsin Alumni Research Foundation, priority 1998, dated 2005).
